US20030111088A1, “Device and method for treating combination dependencies” (Addiction Therapies, Inc., priority 2001, published 2003)
Like-named read-outs stand apart in the source and are kept apart here.

Legend:
[1] = several clinical studies; cited from earlier work
[2] = in vivo; cited from earlier work
[3] = Excerpt: (§1) On day one, following overnight abstinence from smoking, healthy adult smokers who wish to give up smoking receive a single dose of nicotine or placebo. Smokers are assigned to each dosage group in a double blind, randomized manner, as is well known in the art. The following data are collected before dosing, every thirty minutes for the first two hours after dosing, and every hour for the following six hours: plasma levels of nicotine and cotinine, vital signs, adverse events, and patient's assessment of cigarette cravings. Baseline and endpoint clinical chemistry, hematology, urinalysis, and ECG are also monitored.
On day eight, again following overnight abstinence from smoking, the same subjects receive the same dose of nicotine or placebo. The dose is repeated periodically throughout the day. The following data are collected as described above before the first dosing and one hour after each dose is administered: plasma levels of nicotine and cotinine, vital signs, adverse events, and patient's assessment of cigarette cravings. Baseline and endpoint clinical chemistry, hematology, urinalysis, and ECG are also monitored. The data are used to evaluate the safety and pharmacokinetics of nicotine delivery by the smoking cessation device.
(§2) There were 6 subjects per treatment group. […] Apple juice was used as the beverage for delivering nicotine from the straw-like device.

[4] = for plasma levels of nicotine by dose group: single and repeated dose parts
Procedure: The chamber 10 is a plastic drinking straw. The retainer 18 is a filter at the first end 12 of the straw. The user places the first end 12 of the device in a glass of apple juice and applies oral suction to the second end 14 of the device, such that the juice and nicotine 16 are delivered into the user's mouth.
The nicotine 16 in the device is in the form of coated sugar spheres of nicotine bitartrate having a diameter of approximately 500 micrometers. The nicotine spheres are prepared by spraying nicotine bitartrate dihydrate with a binder onto sugar spheres and applying a film coating. Using a Wurster processing unit, particles are suspended in air using a controlled airflow system and a coating suspension is added at a controlled rate via a pneumatically atomized nozzle. As atomized droplets of the coating solution contact the particles, they spread and coalesce on the particle surface. Excess moisture from the applied liquid evaporates in the apparatus, leaving a coated dry substance. Mixing of the coating suspension occurs throughout the manufacturing process to ensure uniformity of the suspension.
as §1, §2

For O=C1CC[C@@]2(O)[C@H]3Cc4ccc(O)c5c4[C@@]2(CCN3CC2CC2)[C@H]1O5 [Naltrexone, naltrexone], the “effects on smoking cessation” value [1] is given as “only small effects”.

For Oc1ccc2c3c1O[C@H]1[C@H](O)CC[C@@]4(O)[C@@H](C2)N(CC2CC2)CC[C@]314 [6β-naltrexol], the plasma half-life [2] is given as 12 h.

With CN1CCCC1c1cccnc1 (centres unmarked) [nicotine] the tolerability ([3]; 4 mg and 8 mg doses in straw-like delivery device) was “well tolerated”, the nausea and vomiting ([3]; 12 mg dose versus 4 mg and 8 mg) was “seen only with the 12 mg dose” and the adverse events observed ([3]; all nicotine doses) was “lightheadedness, nausea, and vomiting”. For the same compound, the “clinical chemistry, hematology, urinalysis or ECG values” ([3]; human, in vivo) was “no clinically significant changes”, the vital sign measurements ([3]; human, in vivo) was “Occasional increases” and the craving for cigarettes ([3]; over the repeat dosing session, all subjects receiving nicotine) was “decreased”. For the same compound, the “plasma levels of nicotine by dose group” value ([4]; 4 mg dose group) was “lowest plasma levels”, the “plasma levels of nicotine by dose group” value ([4]; 8 mg and 12 mg dose groups) was “higher plasma levels” and the “nicotine levels in most subjects” value ([4]; 15 minutes after dosing) was “already increased”. For the same compound, the “plasma nicotine on repeated dosing” value ([4]; repeated dosing every 1.5 hours, 10.5 hour sampling period) was “continuous increases”, the “plasma levels of nicotine versus marketed nicotine replacement products” value ([4]; single dose 4 mg, 8 mg or 12 mg, straw-like device, FIG. 3) was “comparable to or greater than” and the “kinetics compared with nicotine gum” value ([4]; straw-like device, FIG. 4) was “very similar”.
